Among the data in PubChem BioAssay (NCI) are TGI values, retold here.

What all share (test): NCI anticancer screen, dose series, 48 h
Assay [1] relates to ACHN renal.
In assay [2] the test system is DU-145 prostate.
Assay [3] concerns EKVX NSCLC.
The subject of assay [4] is HCC-2998 colon.
For assay [5], the system named is HCT-116 colon.
Assay [6] concerns HCT-15 colon.
In assay [7] the test system is HOP-92 NSCLC.
Assay [8] has as its system LOX IMVI melanoma.
Assay [9] relates to M14 melanoma.
Assay [10] relates to MDA-MB-231 breast.
Assay [11] concerns MDA-MB-435.
Assay [12] deals with NCI-H23 lung.
Assay [13] concerns OVCAR-3 ovarian.
In assay [14] the test system is RXF 393 renal.
For assay [15], the system named is SK-MEL-5 melanoma.
Assay [16] has as its system SK-OV-3 ovarian.
The subject of assay [17] is TK-10 renal.
Assay [18] deals with HL-60(TB) leukemia.

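In this assay, cells in 96-well plates receive the compound at five concentrations for 48 hours. Endpoints are linearly interpolated between the surrounding concentrations. The concentration for full growth arrest is given as TGI.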 Where only a bound is given, the exact number is not on record here.

For `COC(=O)CCC(=O)NC1c2cccc3cccc(c23)Cn2c(=O)n(C)c(=O)n21` (configuration not stated), the TGI in assay [1], in assay [2], in [3], in [4], in assay [5] and in [6] was over 100 µM in each case. Also, the TGI in [7], in [8], in assay [9], in [10], in assay [11] and in assay [12] was over 100 µM each time. The TGI in [13], in assay [14], in assay [15], in [16] and in assay [17] was over 100 µM each time.
On to `CCCN=C(NC(=O)c1ccc(Cl)cc1)SC`, for which the TGI in assay [1], in [2], in [3], in [4], in [5] and in assay [6] was over 100 µM throughout. The TGI in assay [18], in assay [8], in assay [9], in assay [10], in assay [11] and in assay [12] was over 100 µM in each case. For the same molecule, the TGI in assay [13], in assay [14], in assay [15] and in assay [16] was over 100 µM throughout.
Take `Cc1ccc2nc3ccccc3c(C3C4C(=O)N(c5ccc(Br)cc5Cl)C(=O)C4ON3C(C(N)=O)c3ccccc3)c2c1` (configuration not stated): the TGI in assay [1] is 15.3 µM; in assay [2], over 25 µM; in assay [3] it was 15.5 µM; in assay [5], over 25 µM; in assay [6] it was 19.5 µM; in assay [18] it was over 25 µM. Besides, the TGI in [7] is over 25 µM; in assay [8], over 25 µM; in [9], over 25 µM; in assay [10] it was over 25 µM; in assay [11] it was over 25 µM; in [12] it was 6.86 µM. Also, the TGI in assay [13], in assay [14], in assay [15], in [16] and in [17] was over 25 µM in each case.
`CCOC(=O)NC(Nc1ccc(S(=O)(=O)Nc2ncccn2)cc1)(C(=O)OCC)C(F)(F)F` (configuration not stated): the TGI in assay [1], in assay [2], in assay [3], in [4], in assay [5] and in assay [6] was over 100 µM throughout. Also, the TGI in [18], in assay [7], in [8], in assay [9], in [10] and in assay [11] was over 100 µM throughout. For the same molecule, the TGI in [12], in assay [13], in [15] and in assay [16] was over 100 µM throughout.
Turning to `COc1ccc2c(c1)OCc1c-2oc2ccccc2c1=O`, the TGI in assay [1], in [2], in assay [3], in assay [4], in assay [5] and in [6] was over 100 µM throughout. In addition, the TGI in assay [7], in [8], in assay [9], in [10], in [11] and in [13] was over 100 µM in each case. For the same molecule, the TGI in [15], in [16] and in [17] was over 100 µM in each case.
For the molecule `C[N+](C)(N)CCC[N+](C)(C)N`, the TGI in [1], in [2], in assay [3], in assay [5], in assay [6] and in [18] was over 100 µM throughout. Moreover, the TGI in assay [7], in assay [8], in assay [9], in [10], in [11] and in [12] was over 100 µM throughout. Further, the TGI in assay [13], in [14], in [15], in [16] and in assay [17] was over 100 µM throughout.
Consider `S=C1Cc2c([nH]c3ccccc23)-c2ccccc2N1`, for which the TGI in [1] was 80.6 µM; in assay [2], over 100 µM; in assay [3] it was over 100 µM; in assay [5] it was over 100 µM; in assay [18], over 100 µM; in assay [7], over 100 µM. The TGI in assay [8], in assay [9], in assay [10], in assay [11], in assay [12] and in assay [13] was over 100 µM in each case. Moreover, the TGI is 46 µM in [14], over 100 µM in [15], 64.4 µM in [16] and 52.9 µM in [17].
With `CCOc1cc(NC(C)=O)ccc1C(=O)NN1C(=O)C(Oc2ccccc2)C1c1ccc(O)c(OC)c1` (configuration not stated), the TGI in assay [1] is over 100 µM; in [2] it was over 100 µM; in assay [3], over 100 µM; in assay [5] it was over 100 µM; in assay [6], over 100 µM; in [18], 44.8 µM. The TGI in assay [7], in assay [8], in assay [9], in assay [10], in [11] and in [12] was over 100 µM throughout. Further, the TGI in assay [13] is over 100 µM; in [14] it was over 100 µM; in assay [15], 49.5 µM; in [16], over 100 µM; in assay [17], over 100 µM.
For `CC(=O)OCC1OC(N2C(c3ccccc3)=CC(c3ccccc3)C(C#N)=C2S)C(OC(C)=O)C(OC(C)=O)C1OC(C)=O` (configuration not stated), the TGI in assay [1] is 27 µM; in assay [2], over 100 µM; in [4], over 100 µM; in assay [5], over 65.6 µM; in [6], over 100 µM; in assay [18], over 100 µM. For the same molecule, the TGI in assay [7] was 16.6 µM; in assay [8], over 42.5 µM; in assay [9], 74 µM; in [10] it was over 40.8 µM; in [11], over 40.2 µM; in assay [12], 40.5 µM. Moreover, the TGI in [13] was over 63.1 µM; in [14], 12.9 µM; in assay [15], 9.98 µM; in assay [17], 50.1 µM.
As to `CCC1c2[nH]c3ccccc3c2C[C@H]2C(=O)NC(CCC(=O)OC(C)(C)C)C(=O)N12` (some centres not stated), the TGI in assay [1], in assay [2], in [3], in assay [5], in assay [6] and in [18] was over 100 µM in each case. Further, the TGI in assay [7] is 94.9 µM; in assay [8] it was over 100 µM; in assay [9], over 100 µM; in assay [10], over 100 µM; in [11], over 100 µM; in [12], over 100 µM. Further, the TGI in assay [13], in [14], in assay [15], in assay [16] and in [17] was over 100 µM each time.
Take `Cc1ccc(S(=O)(=O)OC2C3OC(C)(C)OC3OC2C(c2cc(O)c3c(c2O)C(=O)c2ccccc2C3=O)c2cc(O)c3c(c2O)C(=O)c2ccccc2C3=O)cc1` (configuration not stated): the TGI in [1], in [2], in assay [3], in assay [4], in assay [5] and in [6] was over 10 µM each time. For the same molecule, the TGI in [18], in assay [7], in assay [8], in assay [9], in assay [10] and in assay [11] was over 10 µM throughout. The TGI in assay [12], in assay [13], in assay [15], in assay [16] and in assay [17] was over 10 µM in each case.
As to `Cc1c(Cc2ccccc2)n(COCCCO)c(=O)[nH]c1=O`, the TGI in [1], in assay [2], in [3], in assay [4], in [5] and in assay [6] was over 100 µM in each case. Also, the TGI in assay [7], in [8], in [9], in assay [10], in assay [11] and in assay [12] was over 100 µM in each case. Moreover, the TGI in [13], in [14], in assay [15], in assay [16] and in assay [17] was over 100 µM in each case.
In the case of `CC1=C2C3=C(C)C(=O)C(C)(C)CC[C@@]3(C)[C@]2(C)CCC(C)(C)C1=O`, the TGI in assay [1], in assay [2], in assay [3], in assay [5], in [6] and in [18] was over 100 µM in each case. Also, the TGI in assay [8], in assay [9], in assay [10], in assay [11], in assay [12] and in assay [13] was over 100 µM each time. Besides, the TGI in assay [14], in [15], in assay [16] and in [17] was over 100 µM throughout.
For the molecule `NCCc1nc(-c2nc(C(=O)O)cs2)cs1`, the TGI in assay [1], in assay [2], in [3], in [5], in [6] and in assay [18] was over 100 µM throughout. Also, the TGI in assay [7], in assay [8], in assay [9], in [10], in assay [11] and in [12] was over 100 µM each time. The TGI in [13], in [14], in assay [15], in assay [16] and in [17] was over 100 µM in each case.
With `Oc1cc(O)c2c(c1)O[C@H](c1cc(O)c(O)c(O)c1)[C@H](O)C2`, the TGI in assay [1] is 48.9 µM; in assay [2], over 100 µM; in assay [5], 40.3 µM; in assay [6], over 100 µM; in assay [18] it was 42.2 µM; in assay [7], over 100 µM. Moreover, the TGI was 77.6 µM in [8]; over 100 µM in [9]; 33.6 µM in assay [10]; 25.4 µM in assay [11]; 65.3 µM in [12]; over 100 µM in assay [13]. Moreover, the TGI in assay [14] was determined as 29.6 µM; in assay [15] it was 37.6 µM; in [16], 56.7 µM.
On to `Cc1nc(N)c(N2CCNCC2)c(=O)[nH]1`, for which the TGI in [1], in assay [2], in assay [3], in [4], in assay [5] and in assay [6] was over 100 µM each time. The TGI in assay [18], in assay [7], in [8], in assay [9], in assay [10] and in assay [11] was over 100 µM in each case. In addition, the TGI in [12], in assay [13] and in assay [17] was over 100 µM each time.
As for `CSc1nc(Cl)c2c(n1)Sc1nc3cc4c(cc3n1C2O)OCO4` (configuration not stated), the TGI in [1] is over 100 µM; in assay [2], over 100 µM; in [3], over 100 µM; in assay [4], over 60.9 µM; in assay [5] it was over 47.4 µM; in [6], over 100 µM. Also, the TGI in assay [8] is 0.746 µM; in assay [9], over 43.9 µM; in assay [10], over 83.3 µM; in [11], over 100 µM; in assay [12], over 100 µM; in assay [13], 7.3 µM. Besides, the TGI in [14] is over 51.9 µM; in [15], 7.49 µM; in [16] it was over 75.3 µM; in assay [17], over 100 µM.
